The target of one assay is T1, Interstitial collagenase (Homo sapiens, UniProt P03956).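 Also: MMP-1 enzyme inhibition assay using a peptide substrate; in other assays of this panel Not Active means under 50% inhibition at 10 µM.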
T1 sequence (P03956 whole entry): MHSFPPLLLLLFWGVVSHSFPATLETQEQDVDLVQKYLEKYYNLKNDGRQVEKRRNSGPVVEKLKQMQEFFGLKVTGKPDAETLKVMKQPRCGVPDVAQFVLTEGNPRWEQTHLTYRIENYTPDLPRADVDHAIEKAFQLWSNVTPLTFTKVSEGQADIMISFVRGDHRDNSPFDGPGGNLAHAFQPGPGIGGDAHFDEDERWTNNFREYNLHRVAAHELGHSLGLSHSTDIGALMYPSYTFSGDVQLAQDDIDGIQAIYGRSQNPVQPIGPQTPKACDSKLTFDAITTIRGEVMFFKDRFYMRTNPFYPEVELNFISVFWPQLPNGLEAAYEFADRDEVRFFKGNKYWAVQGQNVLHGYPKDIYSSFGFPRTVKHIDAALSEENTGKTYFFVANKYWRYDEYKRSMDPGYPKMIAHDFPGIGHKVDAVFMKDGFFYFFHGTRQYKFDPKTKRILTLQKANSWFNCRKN
The experiment in a line: biochemical. The class given is tissue-based, Rheumatoid synovial fibroblasts.

Assay [1] has as its target T2, Amine oxidase [flavin-containing] A (Homo sapiens, UniProt P21397).
T2 sequence (P21397 whole entry): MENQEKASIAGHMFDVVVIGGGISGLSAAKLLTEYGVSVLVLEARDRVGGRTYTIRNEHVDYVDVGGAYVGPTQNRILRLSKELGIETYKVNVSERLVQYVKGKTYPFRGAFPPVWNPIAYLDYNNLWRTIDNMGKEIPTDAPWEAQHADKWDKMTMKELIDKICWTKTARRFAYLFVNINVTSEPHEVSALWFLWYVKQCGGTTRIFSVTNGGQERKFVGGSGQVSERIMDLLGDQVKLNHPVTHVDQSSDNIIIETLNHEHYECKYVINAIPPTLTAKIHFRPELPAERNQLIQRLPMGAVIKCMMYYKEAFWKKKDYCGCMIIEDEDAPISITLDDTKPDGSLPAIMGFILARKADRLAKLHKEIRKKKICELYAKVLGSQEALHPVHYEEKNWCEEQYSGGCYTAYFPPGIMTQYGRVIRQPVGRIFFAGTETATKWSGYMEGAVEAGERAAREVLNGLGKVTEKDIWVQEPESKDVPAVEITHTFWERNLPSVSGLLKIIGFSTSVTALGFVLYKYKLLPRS
The experiment in a line: DRUGMATRIX: Monoamine Oxidase MAO-A enzyme inhibition (substrate: Kynuramine). The conditions noted are these: bti-tn-5b1-4; Not Active = under 50% inhibition at 10 µM. Also on record: species or system BTI-TN-5B1-4.

For assay [2], the target named is Matrix metalloproteinase-9 (Homo sapiens, UniProt P14780). The class given is cell-based.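 Also: inhibition of isolated MMP-9 enzyme activity toward a synthetic peptide substrate, from the DrugMatrix protease screening panel; in other assays of this panel Not Active means under 50% inhibition at 10 µM.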
Matrix metalloproteinase-9, sequence (P14780 whole entry): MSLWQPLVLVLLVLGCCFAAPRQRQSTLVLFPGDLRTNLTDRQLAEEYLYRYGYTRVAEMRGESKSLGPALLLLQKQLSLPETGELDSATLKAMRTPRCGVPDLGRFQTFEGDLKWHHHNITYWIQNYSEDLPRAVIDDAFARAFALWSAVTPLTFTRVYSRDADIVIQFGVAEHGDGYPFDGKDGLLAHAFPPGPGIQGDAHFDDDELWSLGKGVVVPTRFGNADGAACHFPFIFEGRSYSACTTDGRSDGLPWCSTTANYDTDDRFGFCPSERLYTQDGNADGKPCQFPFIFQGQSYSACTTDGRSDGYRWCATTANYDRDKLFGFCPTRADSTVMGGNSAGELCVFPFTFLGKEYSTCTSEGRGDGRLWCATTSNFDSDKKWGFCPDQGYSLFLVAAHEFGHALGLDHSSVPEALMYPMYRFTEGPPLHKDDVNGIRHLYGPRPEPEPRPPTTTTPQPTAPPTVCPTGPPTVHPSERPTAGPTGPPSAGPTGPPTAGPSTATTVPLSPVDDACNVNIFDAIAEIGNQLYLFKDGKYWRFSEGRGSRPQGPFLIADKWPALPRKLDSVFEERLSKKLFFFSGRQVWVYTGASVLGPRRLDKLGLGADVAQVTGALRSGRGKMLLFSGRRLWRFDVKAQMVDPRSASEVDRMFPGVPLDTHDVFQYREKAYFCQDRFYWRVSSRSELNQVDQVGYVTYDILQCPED
The target in another assay is T3, Adenosine receptor A1 (Homo sapiens, UniProt P30542).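 Also: radioligand binding assay at the adenosine A1 receptor, with DPCPX serving as the labelled ligand; in other assays of this panel Not Active means under 50% inhibition at 10 µM.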
T3 sequence (P30542 whole entry): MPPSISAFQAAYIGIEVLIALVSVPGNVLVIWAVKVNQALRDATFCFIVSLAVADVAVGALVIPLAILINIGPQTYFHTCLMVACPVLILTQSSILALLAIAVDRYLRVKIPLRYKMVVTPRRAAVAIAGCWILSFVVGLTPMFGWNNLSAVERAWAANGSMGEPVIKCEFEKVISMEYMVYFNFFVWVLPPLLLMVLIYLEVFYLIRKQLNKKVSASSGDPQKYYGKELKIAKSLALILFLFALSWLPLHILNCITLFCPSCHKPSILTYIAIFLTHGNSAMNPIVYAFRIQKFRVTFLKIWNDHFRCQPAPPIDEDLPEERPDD
The assay is classed as cell membranes, CHO, Membrane. The conditions noted are these: cho.

The target in assay [3] is T4, Cysteinyl leukotriene receptor 1 (Homo sapiens, UniProt Q9Y271). Also: in other assays of this panel Not Active means under 50% inhibition at 10 µM.
T4 sequence (Q9Y271 whole entry): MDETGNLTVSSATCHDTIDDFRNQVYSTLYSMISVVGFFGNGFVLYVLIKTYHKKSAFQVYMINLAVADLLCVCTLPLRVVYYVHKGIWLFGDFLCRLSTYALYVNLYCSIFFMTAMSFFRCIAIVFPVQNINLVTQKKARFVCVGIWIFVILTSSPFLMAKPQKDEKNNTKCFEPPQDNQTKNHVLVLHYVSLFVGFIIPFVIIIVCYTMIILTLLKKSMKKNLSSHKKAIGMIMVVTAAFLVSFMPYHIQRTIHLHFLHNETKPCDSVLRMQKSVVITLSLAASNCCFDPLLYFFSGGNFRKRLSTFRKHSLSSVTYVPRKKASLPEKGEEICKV
The assay is classed as cell membranes, CHO-K1, Membrane. The settings on record: cho-k1.

Assay [4] deals with T5, Muscarinic acetylcholine receptor M5 (Homo sapiens, UniProt P08912).
T5 sequence (P08912 whole entry): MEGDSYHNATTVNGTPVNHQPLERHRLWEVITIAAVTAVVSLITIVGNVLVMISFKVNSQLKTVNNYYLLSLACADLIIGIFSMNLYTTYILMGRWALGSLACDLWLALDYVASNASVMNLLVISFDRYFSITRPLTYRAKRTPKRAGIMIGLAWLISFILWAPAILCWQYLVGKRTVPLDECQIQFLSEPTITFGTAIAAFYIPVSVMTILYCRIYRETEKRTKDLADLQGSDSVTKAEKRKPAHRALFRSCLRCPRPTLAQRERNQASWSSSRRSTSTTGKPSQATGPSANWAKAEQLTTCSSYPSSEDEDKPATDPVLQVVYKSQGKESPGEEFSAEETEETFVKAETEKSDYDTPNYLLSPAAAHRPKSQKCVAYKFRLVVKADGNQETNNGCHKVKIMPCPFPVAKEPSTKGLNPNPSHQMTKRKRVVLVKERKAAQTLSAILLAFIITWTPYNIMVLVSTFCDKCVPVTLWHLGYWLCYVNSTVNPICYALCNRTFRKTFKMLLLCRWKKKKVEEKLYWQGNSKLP
The class given is cell membranes, CHO-K1, Membrane.

The target in assay [5] is Mitogen-activated protein kinase 1 (Homo sapiens, UniProt P28482). Put plainly: DRUGMATRIX: Protein Serine/Threonine Kinase, ERK2 enzyme inhibition (substrate: Myelin Basic Protein). Set-up: species or system Escherichia coli. The settings on record: Not Active = under 50% inhibition at 10 µM.
Mitogen-activated protein kinase 1, sequence (P28482 whole entry): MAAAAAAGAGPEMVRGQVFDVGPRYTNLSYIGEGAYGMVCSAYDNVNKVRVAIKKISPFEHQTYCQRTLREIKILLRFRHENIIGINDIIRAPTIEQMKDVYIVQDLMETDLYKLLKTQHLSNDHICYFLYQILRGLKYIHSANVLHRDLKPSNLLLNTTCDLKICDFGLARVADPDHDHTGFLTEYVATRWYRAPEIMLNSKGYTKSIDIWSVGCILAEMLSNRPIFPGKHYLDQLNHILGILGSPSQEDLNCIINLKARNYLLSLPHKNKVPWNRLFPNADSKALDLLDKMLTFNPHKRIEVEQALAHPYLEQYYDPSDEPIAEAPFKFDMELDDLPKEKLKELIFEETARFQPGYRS

Data on 17 molecules can be found in ChEMBL document CHEMBL1909046, “DrugMatrix in vitro pharmacology data”.

Regarding `CC[C@H](C)[C@@H](CO[C@@H](Cc1ccccc1)C(=O)N[C@@H](CCS(C)(=O)=O)C(=O)OC(C)C)NC[C@@H](N)CS`, the IC50 entry (on Interstitial collagenase; in assay [1]; in assay [2]; at Adenosine receptor A1; in assay [3]; in assay [4] (cho-k1)) was “Not Active” throughout. Moreover, the half-maximal inhibitory concentration (IC50) (as a rule, the concentration at which inhibition is half-maximal) in assay [5] is “Not Active”.

As for `Nc1nc(N)c2nc(-c3ccccc3)c(N)nc2n1`, the half-maximal inhibitory concentration (IC50) result (at Interstitial collagenase; in assay [1]; in assay [2]; against Adenosine receptor A1; in assay [3]; in assay [4] (cho-k1)) was “Not Active” each time. Moreover, in assay [5], the IC50 entry is “Not Active”.

`CCN(CC)C(=S)SSC(=S)N(CC)CC`: the half-inhibitory concentration (IC50) entry (against Interstitial collagenase; in assay [2]; against Adenosine receptor A1; in assay [3]; in assay [4] (cho-k1); in assay [5]) was “Not Active” each time.

In the case of `CN(C)CCC=C1c2ccccc2COc2ccccc21` [DOXEPIN], the IC50 entry (at Interstitial collagenase; in assay [1]; in assay [2]; at Adenosine receptor A1; in assay [3]; in assay [5]) was “Not Active” each time.

Consider `O=C(c1ccccc1)c1ccc2n1CCC2C(=O)O` (stereo not given) [KETOROLAC], for which the IC50 entry (at Interstitial collagenase; in assay [1]; in assay [2]; on Adenosine receptor A1; in assay [3]; in assay [4] (cho-k1)) was “Not Active” each time. In addition, the IC50 entry in assay [5] is “Not Active”.

As to `CCOC(=O)C1=C(C)NC(C)=C(C(=O)OCC)C1c1ccccc1/C=C/C(=O)OC(C)(C)C` [LACIDIPINE], the IC50 entry (against Interstitial collagenase; in assay [1]; in assay [2]; against Adenosine receptor A1; in assay [3]; in assay [4] (cho-k1)) was “Not Active” throughout. For the same molecule, the IC50 result in assay [5] is listed as “Not Active”.

As for `CC(O)C(=O)O` (stereo not given) [LACTIC ACID], the concentration for half-maximal inhibition (IC50) entry (against Interstitial collagenase; in assay [1]; in assay [2]; on Adenosine receptor A1; in assay [3]; in assay [4] (cho-k1)) was “Not Active” in each case. In assay [5], the half-maximal inhibitory concentration (IC50) result is “Not Active”.

For the molecule `CC(C)(C)NC[C@H](O)COc1cccc2c1CCCC2=O` [LEVOBUNOLOL], the half-inhibitory concentration (IC50) result (on Interstitial collagenase; in assay [1]; in assay [2]; against Adenosine receptor A1; in assay [3]; in assay [4] (cho-k1)) was “Not Active” in each case. Moreover, the IC50 entry in assay [5] is “Not Active”.

For the molecule `CO[C@@H]1[C@@H](OC)[C@H](C)[C@@](O)(CC(=O)O)O[C@H]1[C@H](C)[C@H]1O[C@@]2(CC[C@@](C)([C@H]3CC[C@@](C)([C@@H]4O[C@@H]([C@H]5O[C@](C)(O)[C@H](C)C[C@@H]5C)C[C@@H]4O[C@@H]4C[C@H](OC)[C@@H](OC)[C@H](C)O4)O3)O2)C[C@H](O)[C@H]1C.N` [MADURAMICIN], the half-maximal inhibitory concentration (IC50) entry (on Interstitial collagenase; in assay [1]; in assay [2]; at Adenosine receptor A1; in assay [3]; in assay [4] (cho-k1)) was “Not Active” throughout. Also, the IC50 entry in assay [5] is reported as “Not Active”.

As for `OC[C@@H](O)[C@@H](O)[C@H](O)[C@H](O)CO` [MANNITOL], the IC50 result (against Interstitial collagenase; in assay [1]; in assay [2]; on Adenosine receptor A1; in assay [3]; in assay [4] (cho-k1)) was “Not Active” throughout. Also, the half-inhibitory concentration (IC50) result in assay [5] is given as “Not Active”.

As for `CNCCCC12CCC(c3ccccc31)c1ccccc12` [MAPROTILINE], the IC50 result at Interstitial collagenase was “Not Active”; in assay [1], “Not Active”; in assay [2], “Not Active”; at Adenosine receptor A1 it was “Not Active”; in assay [3] it was “Not Active”; in assay [4] (read-out: IC50), 160 nM. In addition, the IC50 result in assay [5] was “Not Active”. Moreover, the Ki (as a rule, the equilibrium dissociation constant of an inhibitor or competing ligand from its target) in assay [4] (read-out: Ki) was found to be 115 nM.

Turning to `COC(=O)Nc1nc2ccc(C(=O)c3ccccc3)cc2[nH]1` [MEBENDAZOLE], the IC50 result (against Interstitial collagenase; in assay [1]; in assay [2]; at Adenosine receptor A1; in assay [3]; in assay [4] (cho-k1)) was “Not Active” throughout. In addition, the IC50 result in assay [5] was “Not Active”.

With `Cc1ccc(Cl)c(Nc2ccccc2C(=O)O)c1Cl` [MECLOFENAMIC ACID], the IC50 result (at Interstitial collagenase; in assay [1]; in assay [2]; on Adenosine receptor A1; in assay [3]; in assay [4] (cho-k1)) was “Not Active” in each case. In addition, in assay [5] (read-out: IC50), the concentration for half-maximal inhibition (IC50) was found to be 3140 nM.

For `CC(=O)O[C@]1(C(C)=O)CC[C@H]2[C@@H]3C[C@H](C)C4=CC(=O)CC[C@]4(C)[C@H]3CC[C@@]21C` [MEDROXYPROGESTERONE ACETATE], the IC50 entry (on Interstitial collagenase; in assay [1]; in assay [2]; at Adenosine receptor A1; in assay [3]; in assay [4] (cho-k1)) was “Not Active” throughout. Further, the 50% inhibitory concentration (IC50) result in assay [5] was “Not Active”.

For `C[N+]1(C)[C@@H]2C[C@@H](OC(=O)[C@H](CO)c3ccccc3)C[C@H]1[C@@H]1O[C@@H]12.[Br-]` [METHSCOPOLAMINE BROMIDE], the half-inhibitory concentration (IC50) result (against Interstitial collagenase; in assay [1]; in assay [2]; against Adenosine receptor A1; in assay [3]; in assay [5]) was “Not Active” throughout.

In the case of `Cc1cc2c(s1)Nc1ccccc1N=C2N1CCN(C)CC1` [OLANZAPINE], the IC50 entry (against Interstitial collagenase; in assay [1]; in assay [2]; against Adenosine receptor A1; in assay [3]; in assay [5]) was “Not Active” each time.

Take `Oc1ccc(/C=C/c2cc(O)cc(O)c2)cc1` [RESVERATROL]: the half-inhibitory concentration (IC50) result (against Interstitial collagenase; in assay [2]; against Adenosine receptor A1; in assay [3]; in assay [4] (cho-k1); in assay [5]) was “Not Active” in each case.
